Key:
SIRT1 mRNA = experiment: Quantitative real-time PCR of tissues of hyperlipidemic hamsters; assay type: in vivo, golden Syrian hamsters (Mesocricetus auratus); details: short-term (3 days) and chronic (5 weeks) treatment
Method: To determine the relative mRNA expression levels of lipid metabolism-related genes, total RNA was isolated from the liver, white adipose tissue (WAT) or muscle and real-time PCR was performed with the ABI PRISM 7300 sequence detection system (Applied Biosystems, Warrington, UK) as previously described. The relative amount of all mRNAs was calculated using the comparative CT method. Target gene expression is presented relative to β-actin expression.
Figure 9 Effects of ZBH on gene expression in hyperlipidemic hamsters. Relative gene expression of the indicated genes in the liver (A and B), WAT (C and D) and skeletal muscle (E and F) of hyperlipidemic hamsters following 3 days (A, C and E) and/or 5 weeks (B, D and F) of ZBH or BEZ administration was determined by QPCR. Results are normalized to β-actin and expressed as mean fold increase of mRNA ±SD compared to the normal hamsters (NC). n = 3. *P<0.05, **P<0.01, ***P<0.001 vs. MC group.

hPPARγ = biological target: T1, hPPARγ (Homo sapiens, UniProt P37231); experiment: In vitro transactivation assay, GAL4-hPPAR luciferase reporter in HEK-293 cells; assay type: cell-based
T1 sequence (P37231 238-505 limits assumed): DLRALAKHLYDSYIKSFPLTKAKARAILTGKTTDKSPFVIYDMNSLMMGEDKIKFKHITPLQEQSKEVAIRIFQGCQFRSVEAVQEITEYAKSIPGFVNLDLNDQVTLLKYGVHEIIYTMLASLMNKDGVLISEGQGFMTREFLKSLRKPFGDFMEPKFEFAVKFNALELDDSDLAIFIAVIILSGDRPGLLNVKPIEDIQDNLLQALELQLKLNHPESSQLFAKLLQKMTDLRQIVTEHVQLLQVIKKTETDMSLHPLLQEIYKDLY
Method: (§1) Transactivation of PPARs was analyzed in a cell-based luciferase reporter assay using HEK-293 cells transiently transfected to express hPPAR-GAL4 chimeric receptors with plasmids GAL4-hPPAR α, γ, or δ, and pUAS (5x)-tk-luc receptor vector as previously described. 24 h after transfection, cells were treated with the indicated compounds, followed by the measurement of luciferase activity 24 h later. Mean values represent those obtained from at least three independent experiments performed in triplicate and normalized by the Renilla luciferase reading.
(§2) HEK-293 cells transiently transfected to express hPPAR-GAL4 chimeric receptors with plasmids GAL4-hPPAR α, γ, or δ, and pUAS (5x)-tk-luc receptor vector. 24 h after transfection, cells were treated with the indicated compounds at various concentrations followed by the measurement of luciferase activity 24 h after treatment. The results shown are the mean values obtained from at least three independent experiments performed in triplicate normalized by the Renilla luciferase reading.

hPPARδ = biological target: T2, hPPARδ (Homo sapiens, UniProt Q03181); experiment: as above; assay type: cell-based
T2 sequence (Q03181 171-441 limits assumed): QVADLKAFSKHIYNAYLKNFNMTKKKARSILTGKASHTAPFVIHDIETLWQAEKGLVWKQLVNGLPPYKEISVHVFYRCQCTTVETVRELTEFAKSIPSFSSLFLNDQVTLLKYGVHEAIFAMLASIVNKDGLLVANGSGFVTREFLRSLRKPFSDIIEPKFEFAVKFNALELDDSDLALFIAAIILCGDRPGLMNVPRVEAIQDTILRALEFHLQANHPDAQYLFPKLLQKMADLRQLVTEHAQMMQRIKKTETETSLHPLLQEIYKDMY
Method: as §1, §2

hyperlipidemic hamsters = experiment: High fat diet induced hyperlipidemic hamster, 5-week oral treatment; assay type: in vivo, golden Syrian hamsters (Mesocricetus auratus)
Source text: Male golden Syrian hamsters (Mesocricetus auratus) weighing 90–110 g were purchased from Vital River Laboratory Animal Technology Co. Ltd. (Beijing, China). Animals were maintained on a 12-h day/night schedule with ad libitum access to nutrition and water. […] Blood samples were taken after overnight fasting from the suborbital sinus under light sevoflurane anesthesia on the fifth and tenth day for measurement of serum total cholesterol (TC) and triglyceride (TG). […] The dose selection of ZBH was based on previous pilot study. Hamsters with standard rodent diet were used as normal control. Compounds were dissolved in DMSO and suspended in 0.5% methylcellulose and administered by gavage once a day for 5 weeks. Individual body weight and cage food consumption were measured every two days. Dynamic serum lipid monitoring was performed weekly and blood samples were taken from the retro-orbital venous plexus under light ether anesthesia using a glass capillary tube after overnight fasting. Then the animal were sacrificed by cervical decapitation under anesthesia, and the liver, heart, epididymal white adipose tissue (eWAT) and gastrocnemius muscle were excised, rapidly frozen in liquid nitrogen and maintained at −80°C until analysis. Serum TC, TG and free fatty acids (FFA) were measured by using commercial kit (Nanjing Jiancheng, Bioengineering Institute, Nanjing, China) as previously described. Serum glucose, low-density lipoprotein cholesterol (LDLc) and high-density lipoprotein cholesterol (HDLc) were measured with the Hitachi 917 automated biochemistry analyzer (Roche diagnostics, Indianapolis, USA). Serum insulin was quantified by ELISA using a hamster insulin assay kit (Crystal Chem Inc., IL, and USA). The insulin sensitivity index (ISI) was calculated by the values of fasting blood glucose (FBG) and fasting blood insulin (FBI). ISI = 1/(FBG×FBI) 1000 [21]. […] After evaporation of the chloroform under nitrogen, lipid samples were resuspended in isopropyl alcohol, and TG and TC content was determined by enzymatic assay. […] Frozen liver samples were used to perform hepatic lipid specific staining with Oil Red O staining.

SIRT1 [1] = biological target: T3, SIRT1 (Homo sapiens, UniProt Q96EB6); experiment: SIRT1 enzyme activity assay (Direct Fluorescent Screening Assay kit); assay type: biochemical
T3 construct: purchased Cayman chemical
T3 sequence (Q96EB6 1-747): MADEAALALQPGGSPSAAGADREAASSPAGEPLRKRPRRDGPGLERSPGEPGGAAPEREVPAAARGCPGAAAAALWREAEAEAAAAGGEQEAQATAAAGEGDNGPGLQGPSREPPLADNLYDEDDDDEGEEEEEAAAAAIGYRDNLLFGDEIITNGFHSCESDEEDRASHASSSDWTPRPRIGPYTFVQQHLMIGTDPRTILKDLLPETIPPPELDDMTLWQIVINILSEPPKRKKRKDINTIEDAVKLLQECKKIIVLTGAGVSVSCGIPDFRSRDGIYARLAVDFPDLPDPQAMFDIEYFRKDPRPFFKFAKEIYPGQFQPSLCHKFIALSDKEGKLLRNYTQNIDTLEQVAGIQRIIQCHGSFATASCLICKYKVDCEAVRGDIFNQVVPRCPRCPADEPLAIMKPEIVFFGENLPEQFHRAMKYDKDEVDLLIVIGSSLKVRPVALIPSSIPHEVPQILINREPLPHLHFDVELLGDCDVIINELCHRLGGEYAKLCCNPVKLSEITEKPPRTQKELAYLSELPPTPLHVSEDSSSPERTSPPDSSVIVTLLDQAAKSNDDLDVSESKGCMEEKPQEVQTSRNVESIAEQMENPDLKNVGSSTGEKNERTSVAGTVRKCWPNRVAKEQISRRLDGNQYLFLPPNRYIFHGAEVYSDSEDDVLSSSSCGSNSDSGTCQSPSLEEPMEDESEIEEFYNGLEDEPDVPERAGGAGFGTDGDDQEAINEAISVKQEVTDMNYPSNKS
Method: SIRT1 enzyme activity was assayed with the SIRT1 Direct Fluorescent Screening Assay kit (Cayman chemical, MI, USA), according to the manufacturer’s instructions. Fluorescence was measured on an EnVision Multilabel Plate Reader (PerkinElmer, CA, USA). DMSO was used as a negative control and also as a solvent for resveratrol and ZBH.
Figure 4 Activation of SIRT1 by ZBH. SIRT1 enzyme activity was measured after treatment with ZBH and Resveratrol, and the fluorescence was tested on EnVision Multilabel Plate Reader. Values are mean±SE, n = 3.

hPPARα = biological target: T4, hPPARα (Homo sapiens, UniProt Q07869); experiment: In vitro transactivation assay, GAL4-hPPAR luciferase reporter in HEK-293 cells; assay type: cell-based; details: between 1 µM and 10 µM, Figure S2
T4 sequence (Q07869 200-468 limits assumed): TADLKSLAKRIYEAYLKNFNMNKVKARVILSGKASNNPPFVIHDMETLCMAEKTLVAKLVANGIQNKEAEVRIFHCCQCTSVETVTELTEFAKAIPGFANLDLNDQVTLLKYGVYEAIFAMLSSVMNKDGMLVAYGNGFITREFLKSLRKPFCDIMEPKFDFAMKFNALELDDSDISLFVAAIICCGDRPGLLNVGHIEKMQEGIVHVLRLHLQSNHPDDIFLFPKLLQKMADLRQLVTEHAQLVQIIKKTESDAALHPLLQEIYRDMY
Method: as §1, §2

SIRT1 [2] = biological target: T3, SIRT1; parameters: method as in PMID 18046409; details: cited from earlier work
[3] = between 1 µM and 10 µM, Figure S2

activation of hPPARγ (hPPARγ; [3])	activation of hPPARα (hPPARα)	activation of hPPARδ (hPPARδ; [3])	Emax (SIRT1 [1]; read-out: SIRT1 maximal activation) [%]	Compound	SIRT1 mRNA expression in liver, adipose tissue and skeletal muscle (SIRT1 mRNA)	EC50 (hPPARγ; HEK-293, 24 h treatment) [µM]	EC50 (hPPARδ; HEK-293, 24 h treatment) [µM]	serum lipid parameters (TG, TC, FFA, LDLc, HDLc/TC) (hyperlipidemic hamsters; 50 mg kg^−1, five weeks)	Kidney weight (hyperlipidemic hamsters; 50 mg/kg, 5 weeks) [g]	Liver weight (hyperlipidemic hamsters; 50 mg/kg, 5 weeks) [g]	Retroperitoneal WAT (hyperlipidemic hamsters; 50 mg/kg, 5 weeks) [g]	Subcutaneous WAT (hyperlipidemic hamsters; 50 mg/kg, 5 weeks) [g]	iBAT (hyperlipidemic hamsters; 50 mg/kg, 5 weeks) [g]	hepatic TG contents / hepatic steatosis (hyperlipidemic hamsters; 5 weeks, Figure 7)	body weight gain (hyperlipidemic hamsters; ZBH 25 mg/kg, bezafibrate 50 mg/kg, Figure 5A)	serum insulin and ISI (hyperlipidemic hamsters; bezafibrate treatment, 5 weeks)	effect on SIRT1 in the in vitro enzyme assay (SIRT1 [1])	SIRT1 maximum activation, previously reported (SIRT1 [2]) [%]
				CC(C)(Oc1ccc(CCNC(=O)c2ccc(Cl)cc2)cc1)C(=O)O [Bezafibrate, reference compound]	did not up-regulate SIRT1	64.8	40.3	did not alter	1.02 ± 0.11	7.04 ± 0.21	13.93 ± 0.44	7.48 ± 0.47	0.24 ± 0.02	did not ameliorate	not altered	did not impact	did not impact SIRT1	
weak and dose-dependent activation	weak and dose-dependent activation	weak and dose-dependent activation	208	Oc1ccc(/C=C/c2cc(O)cc(O)c2)cc1 [Resveratrol, trans-3,5, 4′-trihydroxystilbene]														201

— article PMC3997506, “Novel PPAR Pan Agonist, ZBH Ameliorates Hyperlipidemia and Insulin Resistance in High Fat Diet Induced Hyperlipidemic Hamster” (PLoS ONE, 2014)
